The METLIN SMRT retention time set (Domingo-Almenara et al. 2019)

Experiment: gradient 5% acetonitrile 3 min, to 50% in 2 min, to 85% in 15 min, held 3 min, 100 µL/min
Settings: column: Zorbax Extend-C18 2.1 x 50 mm; eluents: water / acetonitrile, 0.1% formic acid
Summary of the method: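 Over 3 months, pure standards in mixtures of ~100 molecules were run by HPLC coupled to a quadrupole time-of-flight mass spectrometer in positive and negative ionization mode. The column was a Zorbax Extend-C18 (2.1 × 50 mm, 1.8 μm) at 100 μL/min, eluted with water and acetonitrile each holding 0.1% formic acid, with 40 μL dead and 900 μL dwell volumes. Retention time was determined from adduct peaks chosen by software and checked manually.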

RP-LC retention time [s]	SMILES
627	CSc1cccc(NC(=O)Cc2csc(NC(=O)C3CCC(=O)N3)n2)c1 (centres undefined)
1120	CSc1ccccc1NC(=O)c1ccc(COc2ccc(C)cc2)o1
822	Cc1ccc(N2CC(C(=O)NCC(=O)N3CCCc4ccccc43)CC2=O)cc1C (centres undefined)
1110	CCn1nnc(NCc2ccc(-c3cc(Cl)ccc3Cl)o2)n1
1100	CC1=NS(=O)(=O)N(Cc2ccccc2)C=C1C(=O)OCc1ccc(F)c(F)c1
767	Cn1c(=O)n(CC(=O)N2CCOCC2)c(=O)c2cnc(-c3ccccc3)nc21
773	Cc1ccc(NC(=O)NCC(c2cccnc2)c2cn(C)c3ccccc23)cc1Cl (centres undefined)
674	O=C(Nc1c(-c2ccccc2)nc2ccc(Cl)cn12)c1ccco1
722	CCc1cccc(NC(=O)Cn2nc3n(c2=O)CCCCC3)c1
710	Cc1ccn2cc(-c3ccc(NC(=O)c4ccc5ccccc5c4)cc3)nc2n1
828	CCCc1noc(-c2ccnc(-n3ncc(C(=O)NCC)c3C)c2)n1
999	CCCN1C(=O)c2ccccc2Sc2cc(-c3noc(CNC(=O)c4cccs4)n3)ccc21
913	CCOc1ccc(NC(=O)c2c(Cl)ccc(Cl)c2OC)cc1
795	CCn1ccc(C(=O)N2CCCC2c2ccc(OC)cc2)n1 (centres undefined)
729	COC(=O)Cn1c(C)cc(=O)n2nc(-c3ccccc3Cl)nc12
837	O=C1NC(c2cccc([N+](=O)[O-])c2)=CCN1c1ccccc1O
937	Cc1nn(CC(=O)NC2CCCc3ccccc32)c(=O)c2c(C)n(-c3ccccc3)nc12 (centres undefined)
832	CCc1nc2onc(C)c2c(=O)n1CC(=O)NCC(C)c1ccccc1 (centres undefined)
1140	CCc1ccc(-c2noc(Cn3c(=O)n(-c4ccccc4C)c(=O)c4sccc43)n2)cc1
751	COC(=O)c1cc2c(=O)n(-c3cc(OC)c(OC)c(OC)c3)ccc2nc1C
654	Cc1cc(C(=O)N(C)C2CCc3nnc(C)n3CC2)c(C)n1Cc1ccco1 (centres undefined)

RP-LC retention time [s]	SMILES
699	CCOC(=O)Cn1c2ccccc2n2nc(C)c(=O)nc12
760	COc1ccccc1CNC(=O)Cn1c(=O)c2cc(C3CC3)nn2c2ncccc21
932	Cc1cc(C)n(CC(=O)N2CCN(c3ccccc3)CC2)c1-c1nc(C2CC2)no1
615	Cc1oc(-c2ccc(Cl)cc2)nc1CN1CCC(C(=O)NCCCN(C)Cc2ccccc2)CC1
687	Cc1c2cnn(-c3ccccc3)c(=O)c2c(C)n1CCCC(=O)NCC1CCCO1 (centres undefined)
709	COc1ccc(NC(=O)C2CC(=O)N(c3cccc(NC(C)=O)c3)C2)cc1Cl (centres undefined)
804	CCOC(=O)c1cccc(NC(=O)N2CCC3(CC2)NC(=O)c2ccccc2O3)c1
738	CN1C(=O)Cc2cc(C(=O)NCc3ccccc3Cl)ccc21
996	CCOC(=O)c1cccc(N2C=C(C#N)S(=O)(=O)c3ccc(Cl)cc32)c1
829	Cc1nc(Nc2ccccn2)sc1C(=O)N1CCc2ccccc2C1
661	Cc1ccc(CNC(=O)Cn2c(N3CCCCC3)nc(C)cc2=O)cc1
669	Cc1c(C(=O)O)sc2nc(SCC(=O)Nc3ccccc3C(F)(F)F)[nH]c(=O)c12
755	Cc1ccc(C(=O)CC2(O)C(=O)Nc3ccc(C)cc32)cc1 (centres undefined)
860	Cc1cc(C(F)F)n2nc(C(=O)Nc3ccc(C)c(C)c3)nc2n1
1120	Cc1ccc(-c2csc(NC(=O)Cc3ccc(Cl)cc3)n2)cc1
936	COC(=O)c1nnn(-c2cccc(Cl)c2C)c1C(=O)OC
720	Cc1nc(-c2ccc(F)cc2)nc2c1CCC(=O)N2Cc1ccco1
798	CCOC(=O)CSc1nnc(NC(=O)COc2ccccc2)s1
664	CNC(=O)C1CCCN(c2nc3ncn(CC(=O)NCc4ccccc4Cl)c(=O)c3s2)C1 (centres undefined)
627	Cc1nn(CC(=O)NCCCN2CCCCC2)c(=O)c2nc(-c3ccccc3)sc12
911	CCN1C(=O)c2ccccc2Oc2ccc(C(=O)NCc3cccs3)cc21

The remaining lines, values behind:

SMILES	RP-LC retention time [s]
Cc1ccc(NC(=O)CSc2nccc(N3CCN(c4cc(C)ccc4C)CC3)n2)c(Cl)c1	1190
C=CCN1C(=O)COc2ccc(-c3csc(NC(=O)CCC4CCCCC4)n3)cc21	1210
O=C(Cn1nc(C2CC2)cc1C(=O)N1CCCC1)N1CCN(c2ccc(Cl)cc2)CC1	845
CC(C)n1c(=O)c(Nc2cccc(C(F)(F)F)c2)nc2ccncc21	772
Cc1ccc(S(=O)(=O)Cc2ccc(-c3nc(-c4cccc(-c5ccnn5C)c4)no3)cc2)cc1	1140
CC(C)n1cnc(S(=O)(=O)N2CCCC(C(=O)Nc3cccc(CN4CCCC4)c3)C2)c1 (centres undefined)	627
COc1ccc(-c2nnc3sc(COc4ccc(Br)cc4)nn23)cc1	1060
Cc1ccc2c(c1)N(S(C)(=O)=O)CCC(C(=O)NCc1ccccc1)O2 (centres undefined)	875
Cc1cccc(-c2nnc(-c3nc(NC4CCS(=O)(=O)C4)c4ccccc4n3)o2)c1 (centres undefined)	821
O=C(NCc1ccc(-c2nc(-c3cccs3)no2)s1)C1CCC1	910
CN(C)CCn1nnc2cc(-c3noc(-c4ccc(C#N)cc4)n3)ccc21	643
Cc1noc(C2CN(C(=O)Nc3ccc(F)cc3F)CC23CCOCC3)n1 (centres undefined)	695
COc1c(C(=O)NCCN2CCCCC2C)sc2cc(Cl)ccc12 (centres undefined)	710
O=C(NCc1ccco1)Nc1ccc2c(c1)N(C(=O)c1ccccc1)CC2	756
O=C(Nc1ccccc1F)N1CCC(n2cnc3ccccc3c2=O)CC1	712
CN(CC(=O)Nc1ccc(F)cc1)C(=O)C1CCN(c2cnn(C)c(=O)c2)C1 (centres undefined)	634
COc1ccc(N2C=C(C#N)S(=O)(=O)c3c(F)cccc32)cc1OC	844
O=C(NC1CCCCC1)C1CCCN(c2cnc3nccnc3c2)C1 (centres undefined)	691
CC1CCN(S(=O)(=O)c2ccc3nc(N4CCN(c5ccc(F)cc5)CC4)ccc3c2)CC1	1190
O=C(Cn1cccc(-c2nc(-c3ccc(F)cc3)no2)c1=O)N1CCN(c2ccc(F)cc2)CC1	898
COc1ccc(C2Cn3nnc(-c4nc(C(C)C)no4)c3CO2)cc1 (centres undefined)	936
COc1cc(C(=O)N2CCN(c3cc(C)n4cnnc4n3)CC2)cc(OC)c1OC	575
Cc1sc(C)c(S(=O)(=O)Nc2ccc(F)cc2)c1-c1cc(C(F)(F)F)on1	1140
CC1(C)NC(=O)N(CCC(=O)N2CCC(c3nc(C4CCOCC4)no3)C2)C1=O (centres undefined)	604

SMILES	RP-LC retention time [s]
Cc1cc(OCC(=O)N2CCC3(O)CCCCC3C2)c2c3c(c(=O)oc2c1)CCCC3 (centres undefined)	859
Cc1ccc(Nc2c(-c3nc(C)no3)cnc3nc(C)ccc23)c(F)c1	793
O=C(Nc1ccc(OC(F)(F)F)cc1)C1CCCN(c2cc(-n3cccn3)ncn2)C1 (centres undefined)	992
CCCC(=O)N1CCN(c2ccc(=O)n(-c3ccc(Cl)cc3)n2)CC1	778
c1ccc(N2CCN(c3ncnc4scc(-c5cccs5)c34)CC2)cc1	1250
O=C(NCCc1ccccc1)N1CCN(CCn2c(-c3ccncc3)nc3cccnc32)CC1	593
O=C(NCc1ccccc1F)C1CCN(C(=O)c2ncn3c2COC(c2ccc(F)cc2)C3)CC1 (centres undefined)	736
Clc1cccc(-c2noc(Cc3nc(-c4cccs4)cs3)n2)c1	1270
CC(C)Oc1ccccc1CN1CCC2(CC1)CN(C)CC2c1nnc(C(C)C)o1 (centres undefined)	569
COc1ccc(-c2noc(Cc3nnc(-c4cc(C)cc(C)c4)o3)n2)cc1OC	997
CCC1CN2C=Nc3oc(C)c(C(=O)Nc4cccc(C(F)(F)F)c4)c3C2=N1 (centres undefined)	719
CCN(CC)S(=O)(=O)c1ccc2c(c1)cc(C(=O)NCCCN1CCCCC1C)n2C (centres undefined)	679
Cn1c(CN2CCN(C(=O)c3ccc(C#N)cc3)CC2)nc2cc(C(=O)N3CCCC3)ccc21	604
O=C(O)c1nnn(-c2cccc(Br)c2)c1C(F)(F)F	836
Cc1ccc(-c2nnc(-c3cccc(S(=O)(=O)NC(C(=O)O)C(C)C)c3)o2)cc1 (centres undefined)	874
O=S(=O)(c1cc(-c2noc(C3CCCC3)n2)cs1)N1CCOCC1	1200
Cn1nnnc1C1CCCN(C(=O)C2CC2)C1 (centres undefined)	605
CCS(=O)(=O)Nc1ccc2nc(N3CCN(c4cccc(C)c4C)CC3)cc(C(=O)O)c2c1	743
O=C(NC1CC1)C1CCN(C(=O)c2ncn3c2COC(c2ccccc2)C3)CC1 (centres undefined)	619
O=C(Nc1nccs1)c1ccc(Cl)c(S(=O)(=O)N2CCOCC2)c1	729
CCN(CC)C(=O)c1ccc(-c2nc3cc(NS(=O)(=O)c4ccc(F)c(F)c4)ccc3n2C)cc1	724
CCCNS(=O)(=O)c1cc2c(cc1C)CCN2C(C)=O	641
O=C1CCN(C(=O)c2ccco2)CCCC(CO)CCN1 (centres undefined)	566
